Laboratory results reported in US12527774B2, “Estrogen-related receptor alpha modulators” (LEAD PHARMA HOLDING B.V., priority 2019, dated 2026).

Assays:
full length ERRα = full length ERRα (Homo sapiens (Human), UniProt P11474); test: Full Length ERRα Reporter Gene Assay; assay type: cell-based; conditions: SK-BR-3 cells, ERRα-RE luciferase reporter, overnight incubation; read-out: mean pIC50 (converted)
Outline: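 SK-BR-3 cells transiently co-transfected with full-length human ERRα expression construct and ERRα-RE luciferase reporter, plated next day at 25,000 cells/well in phenol-red-free medium with 2% charcoal-stripped FBS. Compound (12-point 4-fold series) incubated overnight; firefly luminescence read, activity as log IC50.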

B16F10 melanoma = test: B16F10 Melanoma Syngeneic Mouse Model; assay type: in vivo; conditions: 30 mpk p.o., q.d., C57BL/6 mice; for Tumor Growth Inhibition (%): Day 13
Procedure: B16F10 Melanoma Syngeneic Mouse Model
Examples inhibitors 100, 191, 192, 194 and 196 were tested for their ability to inhibit tumor growth in a B16F10 melanoma syngeneic mouse model.
Cell line and tumor model: B16F10 melanoma cell line derived allograft model in C57BL/6 mice.
Mouse B16F10 melanoma cells were sourced from American Type Culture Collection (ATCC), USA. Cells were grown in DMEM (Invitrogen, Catalogue No. 31600-034) supplemented with 10% FBS (Invitrogen, Catalogue No. 10438-026), and 1% penicillin streptomycin (Thermo Fisher Scientific, Catalogue No. 15140-122). To establish allografts, the cells were harvested by trypsinization when they reach around 70 to 80% confluence and 0.1 million B16F10 cells were suspended in 50 μl of serum free medium and mixed at 1:1 ratio with matrigel before implanting subcutaneously into the dorsal right flank of mice using a 1 mL BD syringe attached to a 24-gauge needle.
B16F10 tumor grafts were measured after 5 days of cell inoculation once they became palpable. When the average tumor volume reached around 58 mm^3, animals were dosed after randomization into different treatment groups keeping tumor volume and number of animals in such a way so that the average tumor volume of each group remained same across the groups. Dosing was performed on a per kilogram weight basis, by mouth (per os, p.o.) once a day (quaque die, q.d).
Tumor dimensions—length (I) and breadth (b)—were measured by caliper on the day of animal randomization based on tumor volume (Day 1) and thrice weekly thereafter until study termination. Tumor volumes were calculated using the formula b^2*I*0.52 where l=length, b=breadth (Dusan Djokovic et al., BMC Cancer, 2010, 10:641). Tumor growth inhibition was calculated after normalizing the tumor volume on a given day to that on Day 1.
Test items administration was started when tumor volume reached an average of 58 mm^3.
Administration of test items was carried out until Day 14 and measurement of tumor volume was carried out until Day 13 for computing percent tumor growth inhibition (TGI).

[1] = biological target: ERRα ligand binding domain (ERRα-LBD) (Homo sapiens (Human), UniProt P11474); test: ERRα AlphaScreen Assay; assay type: biochemical; conditions: disruption of binding of ERRα-LBD protein to biotin-PGC1α-3 co-activator peptide
Outline: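 His-SUMO-tagged ERRα-LBD from E. coli (0.81 nM) preincubated 1 h at room temperature with compound, streptavidin donor and Ni-chelate acceptor beads (10 μg/mL each), then 2 h with 15 nM biotin-PGC1α-3 peptide (aa 202–220). Buffer: 50 mM Tris-HCl pH 7.5, 100 mM NaCl, 5 mM TCEP, 1% DMSO. Four-parameter IC50; mean pIC50 of replicate values.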

full length ERRα, sequence (P11474 whole entry): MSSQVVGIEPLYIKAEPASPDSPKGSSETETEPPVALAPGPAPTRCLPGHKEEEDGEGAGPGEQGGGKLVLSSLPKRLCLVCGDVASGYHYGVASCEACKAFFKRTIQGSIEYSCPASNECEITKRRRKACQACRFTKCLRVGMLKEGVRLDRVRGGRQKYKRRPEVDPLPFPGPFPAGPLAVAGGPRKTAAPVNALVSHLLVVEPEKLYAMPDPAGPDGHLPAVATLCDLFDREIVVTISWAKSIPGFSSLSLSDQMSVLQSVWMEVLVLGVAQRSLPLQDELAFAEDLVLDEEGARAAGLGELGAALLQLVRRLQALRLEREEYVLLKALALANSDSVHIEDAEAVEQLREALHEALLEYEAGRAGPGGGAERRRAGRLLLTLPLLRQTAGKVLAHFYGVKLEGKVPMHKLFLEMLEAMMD
ERRα ligand binding domain (ERRα-LBD), sequence (P11474 193-421): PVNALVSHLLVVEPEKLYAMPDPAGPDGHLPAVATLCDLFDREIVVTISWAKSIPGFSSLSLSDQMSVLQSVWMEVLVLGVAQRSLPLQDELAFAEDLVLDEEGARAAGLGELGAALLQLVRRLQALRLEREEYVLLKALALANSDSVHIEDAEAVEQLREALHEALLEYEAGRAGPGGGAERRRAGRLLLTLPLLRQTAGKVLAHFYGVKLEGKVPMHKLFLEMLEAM

SMILES | IC50 (full length ERRα) [nM] | Tumor Volume (mm^3) Day 13 (B16F10 melanoma) [mm^3] | Tumor Growth Inhibition (%) (B16F10 melanoma) | mean pIC50 [1]
COc1cc(C2CC(=O)Nc3n[nH]cc32)ccc1COc1ccc(C(F)F)cc1C(F)(F)F (single isomer, unassigned; (-)) [Example 196, (−)-4-(4-{[4-(difluoromethyl)-2-(trifluoromethyl)phenoxy]methyl}-3-methoxyphenyl)-2H,4H,5H,6H,7H-pyrazolo[3,4-b]pyridin-6-one] | ≤ 316 | 755 ± 135 | 60 | –
COc1cc(C2CC(=O)Nc3n[nH]cc32)ccc1COc1ccc(Cl)cc1C(F)(F)F (single isomer, unassigned; (-)) [Example 194, (−)-4-(4-{[4-chloro-2-(trifluoromethyl)phenoxy]methyl}-3-methoxyphenyl)-2H,4H,5H,6H,7H-pyrazolo[3,4-b]pyridin-6-one] | ≤ 316 | 870 ± 152 | 53 | ≥ 8
